Data set [1] concerns Male Sprague-Dawley rats. The experiment in a line: Open-field locomotor activity in rats. Conditions: for sedative or hypnotic effects (locomotor activity): compared with diazepam or triazolam; for Antianxiety/sedation: ratio of lowest effective anxiolytic dose (situational anxiety) and lowest effective dose producing side effects in locomotor activity, PO. As for the experimental part: Open-Field Locomotor Activity in Rats
Male Sprague-Dawley rats, weighing 250-290 grams at the beginning of the experiment were purchased from Charles River Laboratories (Wilmington, Mass.). The animals were housed in groups of four in a colony room maintained at constant temperature (21±2° C.) and humidity (50±10%). The room was illuminated 12 hours per day (lights on at 0600 h). The rats had ad libitum access to food and water. The testing apparatus consisted of Plexiglas chambers (42×42×30 cm) equipped with Digiscan activity monitors (Omnitech Electronics, Columbus, Ohio) that detect interruptions of 16 photobeams spaced 2.5 cm apart and 2.5 cm above the floor. Horizontal activity was monitored for 60 minutes.
(§1) Drug Administration: All drugs were administered PO 20-60 minutes before behavioral testing.
(§2) Data Analysis: Results were expressed as the mean±1 SEM. All data were subjected to analysis of variance (ANOVA) followed by individual mean comparisons using Fisher's Least Significant Difference Test (Kirk, 1968) where appropriate. The significance level was set at p<0.05.
Rats were placed in an open field and the total distance covered by the rat was measured. The test duration was 60 minutes. Compounds producing sedative effects decrease the distance covered.

The test system of a further data set is Male CF1 mice. The experiment in a line: Protection from pentylenetetrazole-induced seizures. Conditions: for PTZ Seizures, effective dose: PO 60 min before pentylenetetrazole 125 mg/kg s.c.; for anticonvulsant effects against PTZ-induced seizures: PTZ 125 mg/kg. Type of data set: in vivo, mouse. On the procedure:
Protection from Pentylenetetrazole-Induced Seizures
Male CF1 mice weighing 20-22 g at the time of the experiment were purchased from Charles River Laboratories (Wilmington, Mass.). Pentylenetetrazole (Sigma Chemical Co.) was administered at 125 mg/kg s.c. The number of animals surviving was recorded at 30 minutes and 60 minutes after administration of pentylenetetrazole.
Drug Administration: All drugs were administered PO 60 minutes before administration of pentyenetetrazole.
Data Analysis: The data are presented as the percent of animals protected from death. The data were analyzed by Chi Square statistics. The significance level was set at p<0.05.
Mice treated with certain compounds of the present invention were subjected to pentylenetetrazole (PTZ) at 125 mg/kg to induce seizures. The percent of animals protected from death within one hour of PTZ was measured.

For data set [2], the system named is Male Sprague-Dawley rats. The experiment in a line: Discriminative stimulus effects of chlordiazepoxide in rats (drug discrimination). Conditions: for CDP-like effects (drug discrimination): compared with diazepam or triazolam; for Antianxiety/abuse liability: ratio of lowest effective anxiolytic dose (situational anxiety) and lowest effective dose producing chlordiazepoxide-like effects in drug discrimination.

In data set [3] the test system is Male Sprague-Dawley rats. In words: Rotorod performance in rats. Conditions: for ataxia (rotorod): compared with diazepam or triazolam; for Antianxiety/ataxia: ratio of lowest effective anxiolytic dose (situational anxiety) and lowest effective dose producing side effects in rotorod, PO. On the procedure:
Rotorod Performance in Rats
Male Sprague-Dawley rats, weighing 180-200 grams at the beginning of the experiment were purchased from Charles River Laboratories (Wilmington, Mass.). The animals were housed in groups of four in a colony room maintained at constant temperature (21±2° C.) and humidity (50±10%). The room was illuminated 12 hours per day (lights on at 0600 h). The rats had ad libitum access to food and water. The degree of muscle coordination or balance (i.e., ataxia) was determined using a standard accelerating rotorod treadmill (Ugo Basile, Comerio-Varese, Italy or Columbus Instruments, Columbus, Ohio) that was 6 cm in diameter, 24 cm above the base, and run from an initial speed of 2 rpm to a maximum speed of 20 rpm. The time each animal remained on the rotating rod was automatically recorded, up to a maximum of 5 minutes.
as §1, §2
The time on the rod for each rat was recorded. Compounds producing ataxia (motor incoordination) decrease the time spent on the rod compared with vehicle-treated animals.

The target in a further data set is GABAA/α3 (Homo sapiens, UniProt P18507+P34903). Conditions: cited from earlier work.
Sequence of GABAA/α3 (P34903 29-492): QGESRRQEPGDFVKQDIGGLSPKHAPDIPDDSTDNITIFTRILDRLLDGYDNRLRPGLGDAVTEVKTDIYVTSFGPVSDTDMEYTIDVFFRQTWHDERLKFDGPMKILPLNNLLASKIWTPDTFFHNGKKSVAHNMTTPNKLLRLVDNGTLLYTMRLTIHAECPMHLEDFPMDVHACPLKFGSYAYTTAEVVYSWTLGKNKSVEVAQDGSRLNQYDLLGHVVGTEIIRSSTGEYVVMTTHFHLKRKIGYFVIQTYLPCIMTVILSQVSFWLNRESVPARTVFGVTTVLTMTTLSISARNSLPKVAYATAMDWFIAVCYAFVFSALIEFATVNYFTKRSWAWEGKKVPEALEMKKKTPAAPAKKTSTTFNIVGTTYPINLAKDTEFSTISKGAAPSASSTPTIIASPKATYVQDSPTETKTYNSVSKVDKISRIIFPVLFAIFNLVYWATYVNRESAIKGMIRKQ
Sequence of GABAA/α3 (P28472 26-473 partner): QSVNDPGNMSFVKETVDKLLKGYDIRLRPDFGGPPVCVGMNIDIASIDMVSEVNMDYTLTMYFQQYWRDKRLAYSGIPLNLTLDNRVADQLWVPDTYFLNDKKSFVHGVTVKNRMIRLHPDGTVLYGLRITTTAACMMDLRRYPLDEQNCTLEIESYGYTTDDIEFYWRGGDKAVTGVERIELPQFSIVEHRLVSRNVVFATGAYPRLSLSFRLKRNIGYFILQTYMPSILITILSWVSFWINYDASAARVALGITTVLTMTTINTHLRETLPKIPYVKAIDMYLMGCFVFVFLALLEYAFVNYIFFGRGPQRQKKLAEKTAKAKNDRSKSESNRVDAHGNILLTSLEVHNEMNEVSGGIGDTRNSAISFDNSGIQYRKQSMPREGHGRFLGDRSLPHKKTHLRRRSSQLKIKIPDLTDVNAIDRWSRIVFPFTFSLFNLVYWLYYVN
Sequence of GABAA/α3 (P18507 40-475): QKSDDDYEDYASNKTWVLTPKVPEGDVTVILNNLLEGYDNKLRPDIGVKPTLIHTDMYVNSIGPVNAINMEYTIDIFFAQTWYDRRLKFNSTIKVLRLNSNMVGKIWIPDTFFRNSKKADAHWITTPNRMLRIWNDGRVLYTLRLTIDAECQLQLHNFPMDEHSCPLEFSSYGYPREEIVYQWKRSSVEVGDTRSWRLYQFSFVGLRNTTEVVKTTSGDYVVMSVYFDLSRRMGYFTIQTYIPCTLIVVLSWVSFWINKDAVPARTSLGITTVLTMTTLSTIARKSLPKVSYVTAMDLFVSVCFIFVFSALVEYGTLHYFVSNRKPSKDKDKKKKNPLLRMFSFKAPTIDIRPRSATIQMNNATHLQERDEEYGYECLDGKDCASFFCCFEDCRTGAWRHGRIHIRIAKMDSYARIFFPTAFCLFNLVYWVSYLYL
A further data set addresses GABAA/α1 receptors (Homo sapiens, UniProt P14867+P18507). Conditions: cited from earlier work.
Another data set has as its target GABAA/α5 receptors (Homo sapiens, UniProt P18507+P31644). Conditions: cited from earlier work.
The target of a further data set is GABAA/α2 (Homo sapiens, UniProt P18507+P47869). Conditions: cited from earlier work.
Sequence of GABAA/α2 (P47869 29-451): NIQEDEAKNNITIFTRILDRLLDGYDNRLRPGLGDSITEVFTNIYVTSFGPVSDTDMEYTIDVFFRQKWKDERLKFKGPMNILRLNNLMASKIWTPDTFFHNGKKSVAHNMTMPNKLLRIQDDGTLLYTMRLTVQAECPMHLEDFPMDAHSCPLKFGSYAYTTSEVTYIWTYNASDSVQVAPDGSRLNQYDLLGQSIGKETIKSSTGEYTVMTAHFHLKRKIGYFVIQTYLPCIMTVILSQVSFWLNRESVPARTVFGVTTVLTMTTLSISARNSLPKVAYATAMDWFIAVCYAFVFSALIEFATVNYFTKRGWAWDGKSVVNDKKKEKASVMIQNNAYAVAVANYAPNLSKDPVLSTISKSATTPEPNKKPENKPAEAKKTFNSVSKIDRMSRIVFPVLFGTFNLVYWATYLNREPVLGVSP
Sequence of GABAA/α2 (P28472 26-473 partner): as the sequence (P28472 26-473 partner) above
Sequence of GABAA/α2 (P18507 40-475): as the sequence (P18507 40-475) above

Where only a bound is given, the exact number is not on record here.

Sequence of GABAA/α5 receptors (P31644 32-462): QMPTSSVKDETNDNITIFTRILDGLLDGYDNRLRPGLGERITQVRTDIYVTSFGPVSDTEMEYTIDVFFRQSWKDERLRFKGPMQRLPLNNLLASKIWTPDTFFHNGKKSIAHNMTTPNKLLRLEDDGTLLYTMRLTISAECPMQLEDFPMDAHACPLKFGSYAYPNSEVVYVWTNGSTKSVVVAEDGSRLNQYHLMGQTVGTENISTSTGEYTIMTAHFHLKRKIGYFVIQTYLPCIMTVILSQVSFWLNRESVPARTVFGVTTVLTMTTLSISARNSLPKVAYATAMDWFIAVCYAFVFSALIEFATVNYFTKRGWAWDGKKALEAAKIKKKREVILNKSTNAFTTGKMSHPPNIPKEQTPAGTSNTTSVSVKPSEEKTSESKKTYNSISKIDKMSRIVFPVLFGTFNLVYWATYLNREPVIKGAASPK
Sequence of GABAA/α5 receptors (P28472 26-473 partner): as the sequence (P28472 26-473 partner) above
Sequence of GABAA/α5 receptors (P18507 40-475): as the sequence (P18507 40-475) above
Sequence of GABAA/α1 receptors (P14867 28-456): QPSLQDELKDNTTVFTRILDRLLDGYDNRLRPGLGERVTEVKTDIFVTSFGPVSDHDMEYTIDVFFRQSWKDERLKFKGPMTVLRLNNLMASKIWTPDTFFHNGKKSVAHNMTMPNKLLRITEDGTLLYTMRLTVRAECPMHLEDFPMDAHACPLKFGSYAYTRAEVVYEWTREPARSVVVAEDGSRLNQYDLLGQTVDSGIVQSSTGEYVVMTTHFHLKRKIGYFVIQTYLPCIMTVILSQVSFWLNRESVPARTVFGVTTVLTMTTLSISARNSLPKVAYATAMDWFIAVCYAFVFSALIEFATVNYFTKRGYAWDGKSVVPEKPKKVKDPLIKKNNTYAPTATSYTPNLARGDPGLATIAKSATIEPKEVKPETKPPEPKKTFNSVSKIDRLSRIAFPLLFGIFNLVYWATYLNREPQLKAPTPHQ
Sequence of GABAA/α1 receptors (P28472 26-473 partner): as the sequence (P28472 26-473 partner) above
Sequence of GABAA/α1 receptors (P18507 40-475): as the sequence (P18507 40-475) above

With `C#Cc1ccc2c(c1)C(c1ccccc1)=NCc1c(C(=O)OCC)ncn1-2` [XHe-ii-053, Ethyl 8-acetylenyl-6-phenyl-4H-benzo[f]imidazo[1,5-a][1,4]diazepine-3-carboxylate], in the data set with Male Sprague-Dawley rats [1], the “sedative or hypnotic effects (locomotor activity)” value (shortened to “sedative or hypnotic effects”) is listed as “less effective in producing sedative or hypnotic effects than diazepam or triazolam” and the Antianxiety/sedation is greater than 300. In the data set with Male CF1 mice, the “PTZ Seizures, effective dose” value is given as “≦100 mg/kg” and the “anticonvulsant effects against PTZ-induced seizures” value (“anticonvulsant effects” below) is recorded as “effective against PTZ-induced seizures”. Also, in the data set with Male Sprague-Dawley rats [2], the “CDP-like effects (drug discrimination)” value was “less potent in producing CDP-like effects than diazepam or triazolam” and the Antianxiety/abuse liability is on record as greater than 300. Also, in the data set on Male Sprague-Dawley rats [3], the “ataxia (rotorod)” value is reported as “less potent in producing ataxia than diazepam or triazolam” and the Antianxiety/ataxia was greater than 300.

Regarding `CCOC(=O)c1ncn2c1CN=C(c1ccccc1)c1cc(Br)ccc1-2` [DM-i-070, Ethyl 8-bromo-6-phenyl-4H-benzo[f]imidazo[1,5-a][1,4]diazepine-3-carboxylate], in the data set with Male Sprague-Dawley rats [1], the Antianxiety/sedation is given as greater than 100. In the data set on Male CF1 mice, the “PTZ Seizures, effective dose” value is less than 100 mg/kg. For the same molecule, the Antianxiety/abuse liability with Male Sprague-Dawley rats [2] was found to be 10. The Antianxiety/ataxia in the data set with Male Sprague-Dawley rats [3] was greater than 100.

As to `Cc1nnc2n1-c1ccc(Cl)cc1C(c1ccccc1Cl)=NC2` [Triazolam, reference compound], in the data set on Male Sprague-Dawley rats [1], the Antianxiety/sedation is listed as 300. Moreover, the “PTZ Seizures, effective dose” value in the data set on Male CF1 mice is reported as less than 1.0 mg/kg. For the same molecule, the Antianxiety/abuse liability in the data set on Male Sprague-Dawley rats [2] came out at 30. In addition, the Antianxiety/ataxia in the data set on Male Sprague-Dawley rats [3] was 100.

Take `C#Cc1ccc2c(c1)C(c1ccccc1)=NCC(=O)N2C` [QH-ii-066, 1-Methyl-7-acetyleno-5-phenyl-1,3-dihydro-benzo [e]-1,4-diazepin-2-one]: at GABAA/α3, the Ki is less than 50 nM. Moreover, in the data set on Male Sprague-Dawley rats [1], the “sedative or hypnotic effects” value was “less effective in producing sedative or hypnotic effects than diazepam or triazolam” and the Antianxiety/sedation is given as 100. In addition, on GABAA/α1 receptors, the Ki was greater than 70 nM. Besides, at GABAA/α5 receptors, the Ki was less than 10 nM. For the same molecule, in the data set on Male CF1 mice, the “PTZ Seizures, effective dose” value is reported as less than 30 mg/kg; the “anticonvulsant effects” value is “anticonvulsant effects against PTZ-induced seizures at doses comparable to those for diazepam and triazolam”. Also, the Ki on GABAA/α2 is less than 50 nM. Besides, in the data set with Male Sprague-Dawley rats [2], the “CDP-like effects (drug discrimination)” value was “less potent in producing CDP-like effects than diazepam or triazolam” and the Antianxiety/abuse liability was 30. In the data set on Male Sprague-Dawley rats [3], the “ataxia (rotorod)” value is given as “less potent in producing ataxia than diazepam or triazolam” and the Antianxiety/ataxia was greater than 100.

In the case of `C#Cc1ccc2c(c1)C(c1ccccc1Cl)=NCc1nnc(C)n1-2` [XLi-JY-DMH, 8-Acetyleno-5-(2′-chlorophenyl)-1-methyl-4H-s-triazolo-[4,3-a]-1,4-benzodiazepine], in the data set on Male Sprague-Dawley rats [1], the “sedative or hypnotic effects” value is “less effective in producing sedative or hypnotic effects than diazepam or triazolam” and the Antianxiety/sedation is given as 10000. Also, in the data set on Male CF1 mice, the “PTZ Seizures, effective dose” value is less than 1.0 mg/kg; the “anticonvulsant effects” value was “anticonvulsant effects against PTZ-induced seizures at doses comparable to those for diazepam and triazolam”. In the data set with Male Sprague-Dawley rats [2], the “CDP-like effects (drug discrimination)” value is listed as “less potent in producing CDP-like effects than diazepam or triazolam” and the Antianxiety/abuse liability amounted to 1000. In the data set with Male Sprague-Dawley rats [3], the “ataxia (rotorod)” value is on record as “less potent in producing ataxia than diazepam or triazolam” and the Antianxiety/ataxia is recorded as 10000.

The record behind these values is US7618958B2, “Stereospecific anxiolytic and anticonvulsant agents with reduced muscle-relaxant, sedative-hypnotic and ataxic effects” (WISYS Technology Foundation, Inc., priority 2004, dated 2009).
